# Test results reported in the kinase profiling compilation of Christmann-Franck et al. (2016).
# Key:
# Assay in all cases: KINOMEscan competition binding
# Settings in all cases: compound 10.0 µM
# [1] = tested on: FLT3 (human), P36888 [ITD]
# CAMK2D (human) = CAMK2D (human) (UniProt Q13557)
# DDR2 (human) = DDR2 (human) (UniProt Q16832)
# CDC42BPA (human) = CDC42BPA (human) (UniProt Q5VT25)
# MARK1 (human) = MARK1 (human) (UniProt Q9P0L2)
# CDK8 (human) = CDK8 (human) (UniProt P49336)
# SYK (human) = SYK (human) (UniProt P43405)
# FYN (human) = FYN (human) (UniProt P06241)
# MAPK13 (human) = MAPK13 (human) (UniProt O15264)
# NTRK2 (human) = NTRK2 (human) (UniProt Q16620)
# AAK1 (human) = AAK1 (human) (UniProt Q2M2I8)
# MAPK3 (human) = MAPK3 (human) (UniProt P27361)
# MARK4 (human) = MARK4 (human) (UniProt Q96L34)
# CDK18 (human) = CDK18 (human) (UniProt Q07002)
# MKNK1 (human) = MKNK1 (human) (UniProt Q9BUB5)
# PAK4 (human) = PAK4 (human) (UniProt O96013)
# AURKC (human) = AURKC (human) (UniProt Q9UQB9)
# RAF1 (human) = RAF1 (human) (UniProt P04049)
# FRK (human) = FRK (human) (UniProt P42685)
# SIK1 (human) = SIK1 (human) (UniProt P57059)
# WEE1 (human) = WEE1 (human) (UniProt P30291)
# STK36 (human) = STK36 (human) (UniProt Q9NRP7)
# MAP2K4 (human) = MAP2K4 (human) (UniProt P45985)
# TTK (human) = TTK (human) (UniProt P33981)
# DYRK1B (human) = DYRK1B (human) (UniProt Q9Y463)
# CAMK2A (human) = CAMK2A (human) (UniProt Q9UQM7)
# MAP4K3 (human) = MAP4K3 (human) (UniProt Q8IVH8)
# GSK3B (human) = GSK3B (human) (UniProt P49841)
# MAP4K1 (human) = MAP4K1 (human) (UniProt Q92918)
# MAPK14 (human) = MAPK14 (human) (UniProt Q16539)
# RPS6KA4 KD2 (human) = RPS6KA4 KD2 (human) (UniProt O75676)
# STK11 (human) = STK11 (human) (UniProt Q15831)
# TLK1 (human) = TLK1 (human) (UniProt Q9UKI8)
# PIM2 (human) = PIM2 (human) (UniProt Q9P1W9)
# NEK2 (human) = NEK2 (human) (UniProt P51955)
# EPHB1 (human) = EPHB1 (human) (UniProt P54762)
# STK32C (human) = STK32C (human) (UniProt Q86UX6)
# RPS6KA5 KD1 (human) = RPS6KA5 KD1 (human) (UniProt O75582)
# ACVRL1 (human) = ACVRL1 (human) (UniProt P37023)
# IKBKB (human) = IKBKB (human) (UniProt O14920)
# Chain of PAK4 (human) (O96013 whole entry, looked up): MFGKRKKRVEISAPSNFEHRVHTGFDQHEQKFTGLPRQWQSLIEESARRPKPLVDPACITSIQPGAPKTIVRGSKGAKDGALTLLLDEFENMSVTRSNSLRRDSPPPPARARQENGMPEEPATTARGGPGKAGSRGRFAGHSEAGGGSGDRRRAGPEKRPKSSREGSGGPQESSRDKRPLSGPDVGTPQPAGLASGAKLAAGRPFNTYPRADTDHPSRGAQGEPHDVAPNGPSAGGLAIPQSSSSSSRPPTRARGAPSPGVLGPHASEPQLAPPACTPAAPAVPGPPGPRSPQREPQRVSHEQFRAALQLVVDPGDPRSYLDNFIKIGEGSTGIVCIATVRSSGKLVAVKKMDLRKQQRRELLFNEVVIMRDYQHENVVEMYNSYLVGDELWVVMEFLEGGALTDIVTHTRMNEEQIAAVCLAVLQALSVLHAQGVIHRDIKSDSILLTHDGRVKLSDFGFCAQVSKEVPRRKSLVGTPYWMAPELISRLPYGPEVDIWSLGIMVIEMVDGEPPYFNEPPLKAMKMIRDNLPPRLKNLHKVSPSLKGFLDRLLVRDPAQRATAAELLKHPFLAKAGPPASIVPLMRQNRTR
# Chain of GSK3B (human) (P49841 whole entry, looked up): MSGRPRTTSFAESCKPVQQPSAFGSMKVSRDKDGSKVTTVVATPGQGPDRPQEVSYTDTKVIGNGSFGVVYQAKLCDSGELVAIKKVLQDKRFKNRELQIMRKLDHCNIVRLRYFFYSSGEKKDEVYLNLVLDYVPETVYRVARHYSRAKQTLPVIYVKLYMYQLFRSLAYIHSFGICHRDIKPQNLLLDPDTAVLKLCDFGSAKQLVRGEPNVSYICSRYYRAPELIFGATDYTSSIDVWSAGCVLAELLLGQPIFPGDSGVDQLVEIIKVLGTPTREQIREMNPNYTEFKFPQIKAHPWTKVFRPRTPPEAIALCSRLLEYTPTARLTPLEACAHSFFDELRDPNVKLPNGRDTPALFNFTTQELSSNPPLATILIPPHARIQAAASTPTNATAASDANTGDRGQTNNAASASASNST
# Chain of CAMK2D (human) (Q13557 whole entry, looked up): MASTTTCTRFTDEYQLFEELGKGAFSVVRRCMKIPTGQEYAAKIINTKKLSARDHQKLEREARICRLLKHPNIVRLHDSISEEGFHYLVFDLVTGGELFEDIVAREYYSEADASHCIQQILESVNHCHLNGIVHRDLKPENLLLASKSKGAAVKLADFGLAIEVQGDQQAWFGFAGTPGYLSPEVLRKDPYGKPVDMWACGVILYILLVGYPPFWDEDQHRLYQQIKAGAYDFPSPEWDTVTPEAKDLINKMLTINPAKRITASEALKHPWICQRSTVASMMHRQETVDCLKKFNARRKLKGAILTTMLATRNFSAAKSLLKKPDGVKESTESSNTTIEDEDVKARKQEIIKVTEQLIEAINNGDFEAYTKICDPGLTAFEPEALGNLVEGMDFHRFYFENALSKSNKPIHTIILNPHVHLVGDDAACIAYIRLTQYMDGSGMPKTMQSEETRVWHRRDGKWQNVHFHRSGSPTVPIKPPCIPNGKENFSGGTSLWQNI
# Chain of ACVRL1 (human) (P37023 whole entry, looked up): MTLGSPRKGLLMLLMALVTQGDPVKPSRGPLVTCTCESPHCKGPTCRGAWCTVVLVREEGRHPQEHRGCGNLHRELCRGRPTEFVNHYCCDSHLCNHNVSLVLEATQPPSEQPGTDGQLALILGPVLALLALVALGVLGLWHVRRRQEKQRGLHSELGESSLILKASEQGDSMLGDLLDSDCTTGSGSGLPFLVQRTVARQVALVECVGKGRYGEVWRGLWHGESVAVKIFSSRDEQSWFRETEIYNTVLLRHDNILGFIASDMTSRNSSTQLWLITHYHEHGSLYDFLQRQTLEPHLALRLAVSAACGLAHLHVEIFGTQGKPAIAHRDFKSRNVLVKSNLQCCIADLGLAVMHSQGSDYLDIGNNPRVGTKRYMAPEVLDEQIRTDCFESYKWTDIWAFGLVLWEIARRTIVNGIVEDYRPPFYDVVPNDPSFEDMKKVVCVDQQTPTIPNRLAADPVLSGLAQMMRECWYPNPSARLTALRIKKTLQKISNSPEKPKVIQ
# Chain of EPHB1 (human) (P54762 whole entry, looked up): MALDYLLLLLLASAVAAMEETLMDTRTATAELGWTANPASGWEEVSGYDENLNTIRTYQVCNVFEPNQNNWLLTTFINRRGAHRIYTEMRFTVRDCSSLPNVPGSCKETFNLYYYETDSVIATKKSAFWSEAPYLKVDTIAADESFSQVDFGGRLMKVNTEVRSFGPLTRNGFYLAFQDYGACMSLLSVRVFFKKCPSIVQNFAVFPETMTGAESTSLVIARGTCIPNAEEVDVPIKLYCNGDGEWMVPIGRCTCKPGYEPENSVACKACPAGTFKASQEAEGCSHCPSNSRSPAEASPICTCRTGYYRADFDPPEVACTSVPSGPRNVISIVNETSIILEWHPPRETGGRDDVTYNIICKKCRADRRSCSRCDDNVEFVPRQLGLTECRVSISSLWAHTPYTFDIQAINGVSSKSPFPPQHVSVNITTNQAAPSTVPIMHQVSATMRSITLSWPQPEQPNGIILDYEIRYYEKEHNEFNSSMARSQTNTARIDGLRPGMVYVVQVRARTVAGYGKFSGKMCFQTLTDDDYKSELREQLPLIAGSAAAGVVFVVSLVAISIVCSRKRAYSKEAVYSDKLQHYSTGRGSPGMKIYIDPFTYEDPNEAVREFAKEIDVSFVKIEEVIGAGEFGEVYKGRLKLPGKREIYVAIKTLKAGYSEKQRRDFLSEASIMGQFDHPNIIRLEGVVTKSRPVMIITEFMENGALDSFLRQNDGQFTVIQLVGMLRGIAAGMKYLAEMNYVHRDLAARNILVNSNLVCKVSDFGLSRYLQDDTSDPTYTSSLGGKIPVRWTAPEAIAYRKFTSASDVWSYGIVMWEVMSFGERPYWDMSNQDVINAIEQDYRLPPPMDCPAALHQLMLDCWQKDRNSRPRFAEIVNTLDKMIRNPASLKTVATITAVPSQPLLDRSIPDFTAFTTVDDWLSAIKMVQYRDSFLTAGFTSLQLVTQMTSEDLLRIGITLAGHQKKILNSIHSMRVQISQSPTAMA
# Chain of MAPK3 (human) (P27361 whole entry, looked up): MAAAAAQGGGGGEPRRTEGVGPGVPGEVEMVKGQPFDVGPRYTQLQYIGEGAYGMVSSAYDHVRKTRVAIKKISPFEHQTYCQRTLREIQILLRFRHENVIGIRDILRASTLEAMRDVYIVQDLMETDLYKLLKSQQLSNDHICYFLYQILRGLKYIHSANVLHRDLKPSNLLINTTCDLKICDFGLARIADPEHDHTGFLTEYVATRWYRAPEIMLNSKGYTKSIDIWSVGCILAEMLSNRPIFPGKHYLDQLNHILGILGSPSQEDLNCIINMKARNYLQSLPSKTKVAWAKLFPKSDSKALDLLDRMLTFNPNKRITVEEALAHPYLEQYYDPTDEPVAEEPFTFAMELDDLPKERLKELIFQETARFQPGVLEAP
# Chain of AAK1 (human) (Q2M2I8 whole entry, looked up): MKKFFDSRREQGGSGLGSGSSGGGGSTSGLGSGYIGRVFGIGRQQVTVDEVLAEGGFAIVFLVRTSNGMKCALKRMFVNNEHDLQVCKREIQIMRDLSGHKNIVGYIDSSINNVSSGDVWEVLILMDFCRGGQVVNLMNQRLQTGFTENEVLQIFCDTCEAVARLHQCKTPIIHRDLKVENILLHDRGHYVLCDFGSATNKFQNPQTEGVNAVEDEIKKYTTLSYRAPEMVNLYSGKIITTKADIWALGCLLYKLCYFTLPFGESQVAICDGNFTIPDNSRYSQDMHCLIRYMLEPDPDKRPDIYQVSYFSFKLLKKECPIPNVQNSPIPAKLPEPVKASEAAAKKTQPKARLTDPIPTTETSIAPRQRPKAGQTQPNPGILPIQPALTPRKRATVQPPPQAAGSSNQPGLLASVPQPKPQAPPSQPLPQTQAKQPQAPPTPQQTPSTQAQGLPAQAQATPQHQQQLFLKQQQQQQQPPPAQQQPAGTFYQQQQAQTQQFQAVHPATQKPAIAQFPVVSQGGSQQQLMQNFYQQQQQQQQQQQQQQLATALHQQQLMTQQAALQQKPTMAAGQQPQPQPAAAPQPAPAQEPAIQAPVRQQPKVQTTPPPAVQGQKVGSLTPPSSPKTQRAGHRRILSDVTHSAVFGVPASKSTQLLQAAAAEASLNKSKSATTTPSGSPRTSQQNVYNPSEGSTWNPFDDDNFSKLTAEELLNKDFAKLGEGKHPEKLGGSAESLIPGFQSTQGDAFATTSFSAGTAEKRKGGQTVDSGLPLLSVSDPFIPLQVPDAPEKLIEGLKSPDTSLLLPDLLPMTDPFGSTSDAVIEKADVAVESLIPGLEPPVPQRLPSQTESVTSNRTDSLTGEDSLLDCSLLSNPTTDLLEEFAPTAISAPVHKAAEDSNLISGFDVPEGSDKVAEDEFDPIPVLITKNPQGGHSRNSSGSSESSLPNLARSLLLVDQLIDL
# Chain of DYRK1B (human) (Q9Y463 whole entry, looked up): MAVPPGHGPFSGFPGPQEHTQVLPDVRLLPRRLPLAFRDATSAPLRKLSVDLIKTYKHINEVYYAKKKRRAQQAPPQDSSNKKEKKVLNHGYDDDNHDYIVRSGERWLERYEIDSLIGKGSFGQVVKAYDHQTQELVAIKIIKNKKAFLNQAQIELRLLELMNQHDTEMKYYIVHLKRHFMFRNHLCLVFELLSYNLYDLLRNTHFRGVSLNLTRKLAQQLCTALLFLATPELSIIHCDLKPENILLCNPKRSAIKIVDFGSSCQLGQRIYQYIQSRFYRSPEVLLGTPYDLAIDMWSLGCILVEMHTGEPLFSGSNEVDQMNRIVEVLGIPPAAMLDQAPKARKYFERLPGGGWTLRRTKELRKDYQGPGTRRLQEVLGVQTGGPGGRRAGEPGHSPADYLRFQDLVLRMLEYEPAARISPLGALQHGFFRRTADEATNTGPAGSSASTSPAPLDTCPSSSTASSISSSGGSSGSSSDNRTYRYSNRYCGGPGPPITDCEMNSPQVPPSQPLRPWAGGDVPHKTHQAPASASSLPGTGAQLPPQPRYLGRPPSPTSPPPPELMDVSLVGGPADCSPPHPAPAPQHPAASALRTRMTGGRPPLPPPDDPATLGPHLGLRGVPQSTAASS
smiles,measurement,setting,value
Cn1c(=O)n(-c2ccc(C(C)(C)C#N)cc2)c2c3cc(-c4cnc5ccccc5c4)ccc3ncc21,"kinase still bound, per cent of control",[1],100%
same,"kinase still bound, per cent of control",CAMK2D (human),100%
same,"kinase still bound, per cent of control",DDR2 (human),100%
same,"kinase still bound, per cent of control",CDC42BPA (human),100%
same,"kinase still bound, per cent of control",MARK1 (human),100%
same,"kinase still bound, per cent of control",CDK8 (human),100%
same,"kinase still bound, per cent of control",SYK (human),100%
same,"kinase still bound, per cent of control",FYN (human),100%
same,"kinase still bound, per cent of control",MAPK13 (human),100%
same,"kinase still bound, per cent of control",NTRK2 (human),100%
same,"kinase still bound, per cent of control",AAK1 (human),100%
same,"kinase still bound, per cent of control",MAPK3 (human),100%
same,"kinase still bound, per cent of control",MARK4 (human),100%
same,"kinase still bound, per cent of control",CDK18 (human),100%
same,"kinase still bound, per cent of control",MKNK1 (human),100%
same,"kinase still bound, per cent of control",PAK4 (human),100%
same,"kinase still bound, per cent of control",AURKC (human),100%
same,"kinase still bound, per cent of control",RAF1 (human),100%
same,"kinase still bound, per cent of control",FRK (human),100%
same,"kinase still bound, per cent of control",SIK1 (human),100%
same,"kinase still bound, per cent of control",WEE1 (human),100%
same,"kinase still bound, per cent of control",STK36 (human),100%
same,"kinase still bound, per cent of control",MAP2K4 (human),100%
same,"kinase still bound, per cent of control",TTK (human),100%
same,"kinase still bound, per cent of control",DYRK1B (human),100%
same,"kinase still bound, per cent of control",CAMK2A (human),100%
same,"kinase still bound, per cent of control",MAP4K3 (human),100%
same,"kinase still bound, per cent of control",GSK3B (human),100%
same,"kinase still bound, per cent of control",MAP4K1 (human),100%
same,"kinase still bound, per cent of control",MAPK14 (human),100%
same,"kinase still bound, per cent of control",RPS6KA4 KD2 (human),100%
same,"kinase still bound, per cent of control",STK11 (human),100%
same,"kinase still bound, per cent of control",TLK1 (human),100%
same,"kinase still bound, per cent of control",PIM2 (human),100%
same,"kinase still bound, per cent of control",NEK2 (human),100%
same,"kinase still bound, per cent of control",EPHB1 (human),100%
same,"kinase still bound, per cent of control",STK32C (human),100%
same,"kinase still bound, per cent of control",RPS6KA5 KD1 (human),100%
same,"kinase still bound, per cent of control",ACVRL1 (human),100%
same,"kinase still bound, per cent of control",IKBKB (human),100%
C=CC(=O)Nc1cccc(Oc2nc(Nc3ccc(N4CCN(C)CC4)cc3OC)ncc2Cl)c1,"kinase still bound, per cent of control",[1],0.85%
same,"kinase still bound, per cent of control",CAMK2D (human),100%
same,"kinase still bound, per cent of control",DDR2 (human),100%
same,"kinase still bound, per cent of control",CDC42BPA (human),100%
same,"kinase still bound, per cent of control",MARK1 (human),11%
same,"kinase still bound, per cent of control",CDK8 (human),100%
same,"kinase still bound, per cent of control",SYK (human),100%
same,"kinase still bound, per cent of control",FYN (human),100%
same,"kinase still bound, per cent of control",MAPK13 (human),100%
same,"kinase still bound, per cent of control",NTRK2 (human),100%
same,"kinase still bound, per cent of control",AAK1 (human),7%
same,"kinase still bound, per cent of control",MAPK3 (human),100%
same,"kinase still bound, per cent of control",MARK4 (human),16%
same,"kinase still bound, per cent of control",CDK18 (human),100%
same,"kinase still bound, per cent of control",MKNK1 (human),100%
same,"kinase still bound, per cent of control",PAK4 (human),100%
same,"kinase still bound, per cent of control",AURKC (human),4.5%
same,"kinase still bound, per cent of control",RAF1 (human),100%
same,"kinase still bound, per cent of control",FRK (human),28%
same,"kinase still bound, per cent of control",SIK1 (human),100%
same,"kinase still bound, per cent of control",WEE1 (human),100%
same,"kinase still bound, per cent of control",STK36 (human),100%
same,"kinase still bound, per cent of control",MAP2K4 (human),100%
same,"kinase still bound, per cent of control",TTK (human),2%
same,"kinase still bound, per cent of control",DYRK1B (human),17%
same,"kinase still bound, per cent of control",CAMK2A (human),100%
same,"kinase still bound, per cent of control",MAP4K3 (human),29%
same,"kinase still bound, per cent of control",GSK3B (human),100%
same,"kinase still bound, per cent of control",MAP4K1 (human),34%
same,"kinase still bound, per cent of control",MAPK14 (human),100%
same,"kinase still bound, per cent of control",RPS6KA4 KD2 (human),16%
same,"kinase still bound, per cent of control",STK11 (human),100%
same,"kinase still bound, per cent of control",TLK1 (human),100%
same,"kinase still bound, per cent of control",PIM2 (human),100%
same,"kinase still bound, per cent of control",NEK2 (human),100%
same,"kinase still bound, per cent of control",EPHB1 (human),100%
same,"kinase still bound, per cent of control",STK32C (human),100%
same,"kinase still bound, per cent of control",RPS6KA5 KD1 (human),100%
same,"kinase still bound, per cent of control",ACVRL1 (human),100%
same,"kinase still bound, per cent of control",IKBKB (human),100%
